In ChEMBL document CHEMBL5303304, “EUbOPEN Chemogenomics Library - IncuCyte” (2023):

Experiments:
Assay type in all cases: toxicity, cell-based
HEK-293T = assay: Incucyte cell viability with HEK293T; conditions: human, 10 µM, compound concentration 10 uM
Fibroblast = assay: Incucyte cell viability with human fibroblast; conditions: 10 µM, compound concentration 10 uM
U2OS = assay: Incucyte cell viability with U2OS; conditions: human, 10 µM, compound concentration 10 uM
Also: unitless GR value; below 1 slowed growth and below 0 cell loss.

| Compound | Growth Rate (HEK-293T; 6 h, replicate number 1) | Growth Rate (HEK-293T; 6 h, replicate number 2) | Growth Rate (HEK-293T; 12 h, replicate number 1) | Growth Rate (HEK-293T; 12 h, replicate number 2) | Growth Rate (HEK-293T; 18 h, replicate number 1) | Growth Rate (HEK-293T; 18 h, replicate number 2) | Growth Rate (HEK-293T; 24 h, replicate number 1) | Growth Rate (HEK-293T; 24 h, replicate number 2) | Growth Rate (Fibroblast; 6 h, replicate number 1) | Growth Rate (Fibroblast; 12 h, replicate number 1) | Growth Rate (Fibroblast; 12 h, replicate number 2) | Growth Rate (Fibroblast; 18 h, replicate number 1) | Growth Rate (Fibroblast; 18 h, replicate number 2) | Growth Rate (Fibroblast; 24 h, replicate number 1) | Growth Rate (Fibroblast; 24 h, replicate number 2) | Growth Rate (U2OS; 6 h, replicate number 2) | Growth Rate (U2OS; 12 h, replicate number 1) | Growth Rate (U2OS; 24 h, replicate number 1) | Growth Rate (Fibroblast; 0 h, replicate number 1) | Growth Rate (U2OS; 6 h, replicate number 1) | also measured |
| --- | --- | --- | --- | --- | --- | --- | --- | --- | --- | --- | --- | --- | --- | --- | --- | --- | --- | --- | --- | --- | --- |
| Cc1nccn1-c1ccc(Sc2cccc(C3(C(N)=O)CCOCC3)c2)cc1 | 0.3 | -0.79 | 0.47 | -0.38 | 0.41 | -0.09 | 0.4 | 0.1 | 0.34 | 0.28 | 0.59 | 0.33 | 0.72 | 0.45 | 0.71 | 0.9 | 0.88 | 0.88 |  |  | Growth Rate (Fibroblast; 0 h, replicate number 2): 0.46; Growth Rate (Fibroblast; 6 h, replicate number 2): -0.58; Growth Rate (U2OS; 12 h, replicate number 2): 0.71; Growth Rate (U2OS; 18 h, replicate number 2): 0.78; Growth Rate (U2OS; 24 h, replicate number 2): 0.81 |
| Cc1cc2nc(N3CCC(C(=O)NC4CCCC4)CC3)n(C(C)C)c2cc1C | 0.3 |  | 0.77 |  | 0.97 |  | 0.88 |  | 0.17 | 0.26 | 0.74 | 0.48 | 0.7 | 0.4 | 0.78 | 0.39 | 0.79 | 0.95 | -1 |  | Growth Rate (U2OS; 0 h, replicate number 2): -0.6; Growth Rate (U2OS; 12 h, replicate number 2): 0.47; Growth Rate (U2OS; 18 h, replicate number 2): 0.67; Growth Rate (U2OS; 24 h, replicate number 2): 0.8 |
| Cc1ccc(NC(=O)c2ccc3c(c2)OCCO3)cc1NC(=O)c1ccc2nc(OCCN3CCCC3)ccc2c1 | -0.91 | -0.96 | -0.78 | -0.81 | -0.56 | -0.61 | -0.43 | -0.45 | -0.21 | -0.3 | -0.27 | -0.2 | -0.22 | -0.09 | -0.05 | 0.35 | -0.04 | -0.12 |  | 0.15 | Growth Rate (Fibroblast; 0 h, replicate number 2): -0.85; Growth Rate (Fibroblast; 6 h, replicate number 2): -0.58; Growth Rate (U2OS; 0 h, replicate number 1): 0.21; Growth Rate (U2OS; 12 h, replicate number 2): 0.05; Growth Rate (U2OS; 18 h, replicate number 1): -0.16; Growth Rate (U2OS; 18 h, replicate number 2): -0.04; Growth Rate (U2OS; 24 h, replicate number 2): -0.01 |
| Cc1cc(Cn2c(N3CC4(CNC4)C3)nc3c(N4CCN(C)CC4)cc(Cl)cc32)cc(C)c1F | -0.99 | -1 | -0.88 | -0.92 | -0.67 | -0.74 | -0.51 | -0.56 |  | -0.99 | -1 | -0.95 | -0.98 | -0.88 | -0.93 | -0.99 | -0.97 | -0.79 | -1 | -0.98 | Growth Rate (Fibroblast; 6 h, replicate number 2): -1; Growth Rate (U2OS; 0 h, replicate number 1): -1; Growth Rate (U2OS; 12 h, replicate number 2): -0.92; Growth Rate (U2OS; 18 h, replicate number 1): -0.92; Growth Rate (U2OS; 18 h, replicate number 2): -0.84; Growth Rate (U2OS; 24 h, replicate number 2): -0.77 |
| Cc1cc(C)nc(Nc2ncc(C(=O)NCCc3c(C)[nH]c4ccccc34)cn2)c1.Cl | 0.92 | 0.14 |  | 0.82 | 0.94 | 1 | 0.99 |  |  |  |  |  |  |  | 0.93 | 0.75 | 0.79 | 0.98 | -1 | 0.56 | Growth Rate (U2OS; 0 h, replicate number 2): 0.92; Growth Rate (U2OS; 12 h, replicate number 2): 0.87; Growth Rate (U2OS; 18 h, replicate number 1): 0.77 |
| Cc1nc2ccc(Oc3ccc(F)cc3)cc2c(=O)n1C[C@H]1CCCN(C(C)C)C1.Cl | 0.43 | 0.87 | 0.27 | 0.35 | 0.16 | 0.4 | 0.17 | 0.23 | 0.24 | 0.12 | 0.34 | 0.13 | 0.69 | 0.18 | 0.73 |  |  | 0.95 | -1 | 0.84 | Growth Rate (U2OS; 0 h, replicate number 1): 0.57; Growth Rate (U2OS; 0 h, replicate number 2): -0.36 |
| N[C@@H]1CCCC[C@H]1Oc1ccc2ncc(-c3cc4ccccc4o3)n2n1 | -0.98 | -0.97 | -0.86 | -0.77 | -0.66 | -0.63 | -0.53 | -0.43 | -0.12 | -0.57 | -0.62 | -0.67 | -0.65 | -0.62 | -0.55 | -0.91 | -0.95 | -0.75 | -1 | -0.96 | Growth Rate (Fibroblast; 6 h, replicate number 2): -0.77; Growth Rate (U2OS; 0 h, replicate number 1): -0.99; Growth Rate (U2OS; 12 h, replicate number 2): -0.8; Growth Rate (U2OS; 18 h, replicate number 1): -0.88; Growth Rate (U2OS; 18 h, replicate number 2): -0.72; Growth Rate (U2OS; 24 h, replicate number 2): -0.63 |
| C#Cc1cnc2[nH]cc(-c3cccc4c3CCN4C(=O)[C@@H]3CCCN3C#N)c2c1 | -0.95 | -0.98 | -0.75 | -0.78 | -0.46 | -0.5 | -0.29 | -0.34 | -0.83 | -0.63 | -0.69 | -0.48 | -0.58 | -0.36 | -0.41 | 0.45 | -0.58 | -0.58 | -1 | 0.06 | Growth Rate (Fibroblast; 6 h, replicate number 2): -1; Growth Rate (U2OS; 0 h, replicate number 1): 0.82; Growth Rate (U2OS; 12 h, replicate number 2): -0.19; Growth Rate (U2OS; 18 h, replicate number 1): -0.68; Growth Rate (U2OS; 18 h, replicate number 2): -0.52; Growth Rate (U2OS; 24 h, replicate number 2): -0.56 |
| CN(CCCCCCC1=C(c2cc(F)cc(F)c2)CCCc2cc(O)ccc21)CCCCS(=O)(=O)CCCC(F)(F)F | -0.95 | -0.98 | -0.48 | -0.83 | -0.16 | -0.52 | -0.1 | -0.38 | -0.99 | -0.97 |  | -0.89 | -0.88 | -0.77 | -0.65 | -0.93 | -0.94 | -0.72 | -1 | -0.96 | Growth Rate (Fibroblast; 6 h, replicate number 2): -1; Growth Rate (U2OS; 0 h, replicate number 1): -1; Growth Rate (U2OS; 0 h, replicate number 2): -0.54; Growth Rate (U2OS; 12 h, replicate number 2): -0.68; Growth Rate (U2OS; 18 h, replicate number 1): -0.87; Growth Rate (U2OS; 18 h, replicate number 2): -0.58; Growth Rate (U2OS; 24 h, replicate number 2): -0.49 |
| Cl.O=C(NCCN1CCC2(CC1)C(=O)NCN2c1cccc(F)c1)c1ccc2ccccc2c1 | -0.37 | -0.93 | 0.06 | -0.68 | 0.22 | -0.32 | 0.34 | -0.14 | -0.03 | -0.27 | -0.26 | -0.19 | -0.07 | -0.27 | -0.14 | 0.73 | 0.24 | -0.24 | -1 | 0.46 | Growth Rate (Fibroblast; 6 h, replicate number 2): -0.05; Growth Rate (U2OS; 0 h, replicate number 1): -0.95; Growth Rate (U2OS; 0 h, replicate number 2): -0.98; Growth Rate (U2OS; 12 h, replicate number 2): 0.25; Growth Rate (U2OS; 18 h, replicate number 1): -0.13; Growth Rate (U2OS; 18 h, replicate number 2): 0.23; Growth Rate (U2OS; 24 h, replicate number 2): 0.17 |
| Cl.O=C(O)CCCN1CCC[C@H]1COc1ccc(Oc2ccc(Cl)cc2)cc1 | 0.64 | -0.09 | 0.9 | 0.12 |  | 0.37 | 0.98 | 0.53 | 0.91 |  | 0.93 | 0.87 |  |  |  |  |  | 0.94 | -1 | 0.84 |  |
| CC(C)Oc1ccc(Cc2ccc(NC3=NCCN3)cc2)cc1 | -0.15 | -0.39 | 0.09 | 0.14 | 0.26 | 0.42 | 0.37 | 0.45 | -0.34 | -0.06 | 0.88 | 0.24 |  | 0.26 |  |  | 0.64 | 0.58 | -1 | 0.1 | Growth Rate (Fibroblast; 0 h, replicate number 2): -0.09; Growth Rate (Fibroblast; 6 h, replicate number 2): 0; Growth Rate (U2OS; 0 h, replicate number 1): 0.6; Growth Rate (U2OS; 18 h, replicate number 1): 0.59 |
